Earlier results, collected in patent US20050124592A1 (priority 2002, published 2005).
Where two headings read alike, the source gives them in different places.

Legend:
progesterone receptor = biological target: T1, progesterone receptor (Homo sapiens, UniProt P06401)
T1 sequence (P06401 1-933): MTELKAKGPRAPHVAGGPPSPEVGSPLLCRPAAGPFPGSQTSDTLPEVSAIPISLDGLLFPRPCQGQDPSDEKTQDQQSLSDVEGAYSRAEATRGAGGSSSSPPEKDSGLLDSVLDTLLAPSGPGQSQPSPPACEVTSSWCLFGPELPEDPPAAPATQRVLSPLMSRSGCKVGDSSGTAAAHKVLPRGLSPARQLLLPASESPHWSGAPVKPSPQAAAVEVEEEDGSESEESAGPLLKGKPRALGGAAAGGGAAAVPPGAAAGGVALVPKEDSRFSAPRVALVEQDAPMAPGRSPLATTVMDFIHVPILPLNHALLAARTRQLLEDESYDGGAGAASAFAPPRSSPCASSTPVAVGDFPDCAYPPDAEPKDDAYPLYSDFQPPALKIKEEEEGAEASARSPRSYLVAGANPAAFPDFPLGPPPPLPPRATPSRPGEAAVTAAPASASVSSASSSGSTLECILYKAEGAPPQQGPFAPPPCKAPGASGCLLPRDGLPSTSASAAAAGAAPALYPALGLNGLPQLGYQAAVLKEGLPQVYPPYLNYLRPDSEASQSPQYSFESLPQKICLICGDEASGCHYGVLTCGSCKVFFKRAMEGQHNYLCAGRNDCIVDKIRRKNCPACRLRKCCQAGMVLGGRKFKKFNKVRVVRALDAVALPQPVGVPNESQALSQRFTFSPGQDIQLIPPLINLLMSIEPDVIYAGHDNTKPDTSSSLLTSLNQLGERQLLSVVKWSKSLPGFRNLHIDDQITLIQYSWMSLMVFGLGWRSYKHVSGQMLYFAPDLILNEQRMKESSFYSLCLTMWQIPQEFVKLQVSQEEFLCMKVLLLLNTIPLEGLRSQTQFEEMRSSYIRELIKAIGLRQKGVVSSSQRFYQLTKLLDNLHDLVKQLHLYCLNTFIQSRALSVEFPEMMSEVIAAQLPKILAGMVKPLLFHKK

Which results are given for C#C[C@]1(O)CC[C@H]2[C@@H]3[C@H](C)CC4=C(CCC(=O)C4)[C@H]3CC[C@@]21C [tibolone, (7α,17α)-17-hydroxy-7-methyl-19-nor-17-pregn-5(10)-en-20-yn-3-one]?
estrogenic activity (estrogen receptor): hardly has an estrogenic activity; estrogenic activity (estrogen receptor; listed as Tibolone): weak; progestagenic activity (progesterone receptor): weak
